The values below come from patent US5763435A, “Sulfate conjugates of ursodeoxycholic acid, and their beneficial use in inflammatory disorders” (priority 1995, dated 1998).

“And” between values parts separate entries of the source, which are not always exact repeats. Identical values can stand only once.

The data set relates to Principal Bile Acids in Jejunum. Put plainly: Bile acid composition of jejunum after oral administration (GC-MS). Type of data set: in vivo, Sprague-Dawley rats. The following applies: for UDCA mass in jejunum / Chenodeoxycholic acid mass in jejunum / Cholic acid mass in jejunum / Cholic acid percent of jejunal bile acids / Deoxycholic acid mass in jejunum / Deoxycholic acid percent of jejunal bile acids / Lithocholic acid percent of jejunal bile acids / Total bile acid mass in jejunum / UDCA percent of jejunal bile acids / Δ^22-UDCA mass in jejunum / Δ^22-UDCA percent of jejunal bile acids / Δ^22-β-Muricholic acid mass in jejunum / Δ^22-ω-Muricholic acid mass in jejunum / β-Muricholic acid mass in jejunum / ω-Muricholic acid mass in jejunum / Lithocholic acid mass in jejunum / α-Muricholic acid mass in jejunum: oral gavage 250 mg/day, 4 days, mean ± SEM; for UDCA mass in jejunum: 24 hours after final dose; for Conjugation pattern of UDCA in jejunum: anion-exchange chromatography. As for the experimental part: Male Sprague-Dawley rats (Harlan Sprague-Dawley, Inc., Indianapolis, Ind.), weighing 210-290 g, were maintained on a 12-hour light-dark cycle and fed standard laboratory chow ad libitum for 3 days. The animals were then transferred to metabolic cages in which they were housed individually and fed the same diet. UDCA, UDCA 3-sulfate, UDCA 7-sulfate, and UDCA 3,7-disulfate were administered by gavage at a dose of 250 mg/day for 4 consecutive days. Each group comprised 3-6 rats. Body weights of the animals were measured each day. On day 5, the animals were killed by exsanguination under ether anesthesia. Plasma was collected and frozen at -20° C. The liver was removed, rinsed in normal saline, and flash-frozen in liquid nitrogen. Urine and feces were collected every 24 hours and frozen at -20° C. All animals received humane care in compliance with the "Guide for the Care and Use of Laboratory Animals" prepared by the National Academy of Sciences (National Institutes of Health publication no. 86-23, revised in 1985).
Intestinal contents were weighed and dissected into small pieces. In each group, feces (100 mg) from all animals were pooled on day 4 of the study and then ground into a fine paste. All samples were sonicated and sequentially refluxed in 80% methanol for 2 hours and chloroform/methanol (1:1) for 1 hour. Samples were taken to dryness, and the dried extracts were resuspended in 80% methanol (20 mL). Fractions of the methanolic extract (1/40 of intestinal contents and 1/20 of feces samples) were removed and the internal standard nordeoxycholic acid (10 μg) was added. This extract was diluted with 0.01 mol/L acetic acid (20 mL) and passed first through a column of Lipidex 1000 (bed size, 4×1 cm; Packard Instrument Co., Groningen, The Netherlands) and then through a Bond-Elut C18, cartridge (Analytichem, Harbor City, Calif.). Bile acids were recovered by elution of the Lipidex 1000 column and the Bond-Elut cartridge with methanol (20 mL and 5 mL, respectively), and the combined extracts were taken to dryness. Unconjugated bile acids were isolated and separated from neutral sterol and conjugated bile acids by lipophilic anion exchange chromatography on diethylaminohydroxypropyl Sephadex LH-20 (Lipidex-DEAP; Package Instrument Co.). Recovery of unconjugated bile acids was achieved by elution with 0.1 mol/L acetic acid in 72% ethanol (7 mL) followed by evaporation of the solvents. Total conjugated bile acids were recovered with 9 mL of 0.3 mol/L acetic acid in 72% ethanol, pH 9.6. Salts were removed by passage through a Bond-Elut C18 cartridge after addition of nordeoxycholic acid (10 μg), and conjugated bile acids were recovered by elution with 5 mL of methanol. Solvolysis was performed in a mixture of methanol (1 mL), distilled tetrahydrofuran (9 mL), and 1 mol/L trifluoracetic acid in dioxane (0.1 mL) and heated to 45° C for 2 hours. After solvolysis, unconjugated bile acids were isolated by chromatography on Lipidex-DEAP. Methyl ester derivatives were prepared by dissolving the sample in methanol (0.3 mL) and reacting with 2.7 mL of freshly distilled ethereal diazomethane. After evaporation of the reagents, the methyl ester derivatives were converted to trimethylsilyl ethers by the addition of […] of Tri-Sil reagent (Pierce Chemicals, Rockford, Ill.). A column of Lipidex 5000 (Packard Instrument Co.) was used to remove derivatizing reagents and to purify the sample.
Samples of liver (100 mg) were ground to a fine paste, and bile acids were extracted by reflux and passage through a column of Lipidex 1000 as described above for intestinal contents and feces. Group separation of bile acids, according to their mode of conjugation was achieved by lipophilic anion-exchange chromatography. […]

For `C[C@H](CCC(=O)O)[C@H]1CC[C@H]2[C@@H]3[C@@H](OS(=O)(=O)O)C[C@@H]4C[C@H](OS(=O)(=O)O)CC[C@]4(C)[C@H]3CC[C@]12C` [UDCA-DS, ursodeoxycholic acid 3,7-disulfate], the “Chenodeoxycholic acid mass in jejunum” value turned out to be 0.12 mg, the “Cholic acid mass in jejunum” value was determined as 6.78 mg, the “Cholic acid percent of jejunal bile acids” value amounted to 66.0% and the “Deoxycholic acid mass in jejunum” value was found to be 0.5 mg. The “Deoxycholic acid percent of jejunal bile acids” value (shortened to “Deoxycholic acid percent”) is 5.2%, the “Lithocholic acid percent of jejunal bile acids” value (shortened to “Lithocholic acid percent”) is on record as 0%, the “Total bile acid mass in jejunum” value is 10.24 mg and the “UDCA percent of jejunal bile acids” value was 2.0%. Also, the “Δ^22-UDCA mass in jejunum” value came out at 0.21 mg, the “Δ^22-UDCA percent of jejunal bile acids” value was determined as 2.1%, the “Δ^22-β-Muricholic acid mass in jejunum” value is listed as 0.34 mg and the “Δ^22-ω-Muricholic acid mass in jejunum” value worked out at 0.12 mg. For the same compound, the “β-Muricholic acid mass in jejunum” value amounted to 1.70 mg and the “ω-Muricholic acid mass in jejunum” value was found to be 0.24 mg. Moreover, where the note is “listed as UDCA 3,7-SULFATE”, the “UDCA mass in jejunum” value was 0.21 mg. Further, the “UDCA mass in jejunum” value (listed as UDCA 3,7-disulfate) is 0.21 ± 0.07 mg.
As for `C[C@H](CCC(=O)O)[C@H]1CC[C@H]2[C@@H]3[C@@H](O)C[C@@H]4C[C@H](O)CC[C@]4(C)[C@H]3CC[C@]12C` [UDCA, 3 alpha, 7 beta-dihydroxy-5 beta-cholan-24oic acid, reference compound], the “UDCA mass in jejunum” value is 9.95 mg and 9.95 ± 0.49 mg; the “Chenodeoxycholic acid mass in jejunum” value was determined as 0.98 mg; the “Cholic acid mass in jejunum” value was 4.68 mg and 4.68 ± 0.65 mg; the “Cholic acid percent of jejunal bile acids” value is given as 16.8%. Further, the “Deoxycholic acid mass in jejunum” value amounted to 1.56 mg, the “Deoxycholic acid percent” value amounted to 5.6%, the “Lithocholic acid mass in jejunum” value is reported as 0.26 mg and the “Lithocholic acid percent” value came to 1.0%. Moreover, the “Total bile acid mass in jejunum” value is recorded as 27.77 mg, the “UDCA percent of jejunal bile acids” value is on record as 35.9%, the “Δ^22-UDCA mass in jejunum” value is 4.00 mg and the “Δ^22-UDCA percent of jejunal bile acids” value was 14.5%. Further, the “Δ^22-β-Muricholic acid mass in jejunum” value is given as 0.85 mg, the “Δ^22-ω-Muricholic acid mass in jejunum” value worked out at 0.30 mg, the “α-Muricholic acid mass in jejunum” value was determined as 0.75 mg and the “β-Muricholic acid mass in jejunum” value is reported as 4.12 mg. Moreover, the “ω-Muricholic acid mass in jejunum” value came out at 0.31 mg. Also, where the note is “oral”, the “Δ^22 UDCA in jejunum (in words)” value is “detected in large proportions and amounts”; the “Conjugation pattern of UDCA in jejunum” value was “predominantly glyco- and tauro-UDCA, smaller amounts of unconjugated UDCA, and negligible amounts of sulfated UDCA”.
As for `C[C@H](CCC(=O)O)[C@H]1CC[C@H]2[C@@H]3[C@@H](OS(=O)(=O)O)C[C@@H]4C[C@H](O)CC[C@]4(C)[C@H]3CC[C@]12C` [UDCA-7S, ursodeoxycholic acid 7-sulfate], the “Chenodeoxycholic acid mass in jejunum” value was found to be 0.26 mg, the “Cholic acid mass in jejunum” value came to 15.78 mg, the “Cholic acid percent of jejunal bile acids” value is on record as 69.0% and the “Deoxycholic acid mass in jejunum” value amounted to 0.76 mg. Besides, the “Deoxycholic acid percent” value is recorded as 3.3%, the “Lithocholic acid mass in jejunum” value turned out to be 0.01 mg, the “Lithocholic acid percent” value was 0.1% and the “Total bile acid mass in jejunum” value was determined as 22.91 mg. Also, the “UDCA percent of jejunal bile acids” value amounted to 4.7%, the “Δ^22-UDCA mass in jejunum” value stood at 0.70 mg, the “Δ^22-UDCA percent of jejunal bile acids” value was 3.1% and the “Δ^22-β-Muricholic acid mass in jejunum” value stood at 1.49 mg. For the same compound, the “Δ^22-ω-Muricholic acid mass in jejunum” value was found to be 0.26 mg, the “α-Muricholic acid mass in jejunum” value worked out at 0.04 mg, the “β-Muricholic acid mass in jejunum” value was 2.21 mg and the “ω-Muricholic acid mass in jejunum” value was 0.31 mg. Besides, under “listed as UDCA 7-SULFATE”, the “UDCA mass in jejunum” value came out at 1.09 mg. Besides, for the setting “listed as UDCA 7-sulfate”, the “UDCA mass in jejunum” value worked out at 1.09 ± 0.34 mg.
Take `C[C@H](CCC(=O)O)[C@H]1CC[C@H]2[C@@H]3[C@@H](O)C[C@@H]4C[C@H](OS(=O)(=O)O)CC[C@]4(C)[C@H]3CC[C@]12C` [UDCA-3S, ursodeoxycholic acid 3-sulfate]: the “Chenodeoxycholic acid mass in jejunum” value amounted to 0.43 mg, the “Cholic acid mass in jejunum” value stood at 8.49 mg, the “Cholic acid percent of jejunal bile acids” value is recorded as 37.7% and the “Deoxycholic acid mass in jejunum” value worked out at 1.96 mg. Further, the “Deoxycholic acid percent” value is recorded as 8.4%, the “Lithocholic acid mass in jejunum” value is recorded as 0.07 mg, the “Lithocholic acid percent” value was determined as 0.3% and the “Total bile acid mass in jejunum” value came to 22.57 mg. Also, the “UDCA percent of jejunal bile acids” value came out at 16.4%, the “Δ^22-UDCA mass in jejunum” value worked out at 2.04 mg, the “Δ^22-UDCA percent of jejunal bile acids” value was found to be 9.2% and the “Δ^22-β-Muricholic acid mass in jejunum” value turned out to be 2.09 mg. In addition, the “Δ^22-ω-Muricholic acid mass in jejunum” value is given as 0.24 mg, the “α-Muricholic acid mass in jejunum” value is 0.18 mg, the “β-Muricholic acid mass in jejunum” value is reported as 3.02 mg and the “ω-Muricholic acid mass in jejunum” value was determined as 0.37 mg. Moreover, under “oral”, the “Δ^22 UDCA in jejunum (in words)” value was “detected in large proportions and amounts”; the “Conjugation pattern of UDCA in jejunum” value is recorded as “substantial proportions of amidated UDCA”. Also, where the note is “listed as UDCA 3-SULFATE”, the “UDCA mass in jejunum” value turned out to be 3.67 mg. Moreover, the “UDCA mass in jejunum” value (listed as UDCA 3-sulfate) amounted to 3.67 ± 0.45 mg. The “Change in proportion of cholic acid in jejunum (in words)” value (oral, vs control) was “decrease (P=0.05) in the proportion of cholic acid but to a lesser extent than UDCA”.
